This passage reports IC50, Kb and Kq results from ChEMBL document CHEMBL1158170, “Synthesis, characterization, antioxidant activity and DNA-binding studies of two rare earth(III) complexes with naringenin-2-hydroxy benzoyl hydrazone ligand” (Eur J Med Chem, 2008).

Experiment [1] can be described thus: Antioxidant activity at pH 7.4 by hydroxyl radical scavenging assay. The format is functional.
Experiment [2] relates to DNA. Put plainly: Binding affinity to calf thymus DNA by electronic absorption spectroscopy. The format is nucleic-acid assay. Conditions: Bos taurus.
Experiment [3] has as its system DNA. Description: Binding affinity to calf thymus DNA by fluorescence spectroscopy. The format is nucleic-acid assay. Conditions: Bos taurus.

On to `OC[C@@H](O)[C@@H](O)[C@H](O)[C@H](O)CO` [MANNITOL], for which the concentration for half-maximal inhibition (IC50) in experiment [1] came out at 9.6 mM.

The compound `O=C(N/N=C1\CC(c2ccc(O)cc2)Oc2cc(O)cc(O)c21)c1ccccc1O` (stereo not drawn) displayed a Kb in experiment [2] of 1.6 ×10⁴ /M. This compound gave a Kq in experiment [3] of 0.93 ×10⁴ /M.

The IC50 is the concentration that inhibits the measured activity by half. Higher therefore signals weaker potency.
